Assay type in all cases: cell-based
The target in one assay is T1, 5-HT2A receptor (Homo sapiens, UniProt P28223).
T1 construct: host or cells: HEK293
The assay is described as follows: FLIPR Ca2+ flux functional assay, 5-HT2A agonist activity. The following applies: for Emax: agonist activity, Ca2+ flux, stably transfected HEK293 cells. As to the method: (§1) Functional Assays 5-HT2A, 5-HT2B and 5-HT2C Receptors
(§2) Activity at 5-HT2A, 5-HT2B and 5-HT2C receptors was determined using a FLIPR Ca2+ flux assay at WuXi AppTec Co. Ltd. (Hong Kong) Discovery Biology Unit according to their standard protocols. Briefly, stably transfected cells expressing the receptor of interest (HEK293 for 5-HT2A and 5-HT2C; CHO-K1 for 5-HT2B) were grown and plated in a 384 well plate and incubated at 37° C. and 5% 002 overnight. A 250 mM stock solution of probenecid in FLIPR calcium assay buffer (10 mL) was freshly prepared and combined with a fluorescent dye (Fluo-4 Direct) to give a final assay concentration of 2.5 mM. Reference compounds were 4-fold serially diluted and the screening compounds were 3-fold serially diluted in 100% DMSO for 10 points using Agilent Bravo, and 750 nL was added to a 384 well compound plate using Echo along with 30 μL assay buffer. The fluorescent dye was then added to the assay plate along with assay buffer to a final volume of 40 μL. The cell plate was incubated for […] at 37° C. and 5% 002 and placed into the FLIPR Tetra along with the compound plate. 10 μL of references and compounds were then transferred from the compound plate into the cell plate and the fluorescent signal was read.
(A change in cytosolic calcium serves as a functional read-out for many receptors and channels.)

The target in another assay is T2, 5-HT2C receptor (Homo sapiens, UniProt P28335).
T2 construct: host or cells: HEK293
T2 sequence (P28335 33-458): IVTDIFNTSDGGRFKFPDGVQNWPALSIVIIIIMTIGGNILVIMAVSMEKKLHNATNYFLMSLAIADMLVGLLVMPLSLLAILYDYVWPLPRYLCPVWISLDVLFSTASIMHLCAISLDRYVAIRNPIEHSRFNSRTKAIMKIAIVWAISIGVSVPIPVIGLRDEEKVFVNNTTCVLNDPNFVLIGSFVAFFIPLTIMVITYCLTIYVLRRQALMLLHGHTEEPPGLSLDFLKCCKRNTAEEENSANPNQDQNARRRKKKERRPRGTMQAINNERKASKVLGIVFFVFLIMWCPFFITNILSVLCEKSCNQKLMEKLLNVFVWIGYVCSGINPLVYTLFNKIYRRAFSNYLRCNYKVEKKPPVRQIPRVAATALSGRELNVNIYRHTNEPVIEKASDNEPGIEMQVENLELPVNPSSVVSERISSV
Description: FLIPR Ca2+ flux functional assay, 5-HT2C agonist activity. The following applies: for Emax: agonist activity, Ca2+ flux, stably transfected HEK293 cells. Here is the method:
as §1, §2

A further assay concerns the target T3, 5-HT2B receptor (Homo sapiens, UniProt P41595).
T3 construct: host or cells: CHO-K1
Description: FLIPR Ca2+ flux functional assay, 5-HT2B agonist activity. The following applies: for Emax: agonist activity, Ca2+ flux, stably transfected CHO-K1 cells. Here is the method: as §1, §2

T3 sequence (P41595 whole entry): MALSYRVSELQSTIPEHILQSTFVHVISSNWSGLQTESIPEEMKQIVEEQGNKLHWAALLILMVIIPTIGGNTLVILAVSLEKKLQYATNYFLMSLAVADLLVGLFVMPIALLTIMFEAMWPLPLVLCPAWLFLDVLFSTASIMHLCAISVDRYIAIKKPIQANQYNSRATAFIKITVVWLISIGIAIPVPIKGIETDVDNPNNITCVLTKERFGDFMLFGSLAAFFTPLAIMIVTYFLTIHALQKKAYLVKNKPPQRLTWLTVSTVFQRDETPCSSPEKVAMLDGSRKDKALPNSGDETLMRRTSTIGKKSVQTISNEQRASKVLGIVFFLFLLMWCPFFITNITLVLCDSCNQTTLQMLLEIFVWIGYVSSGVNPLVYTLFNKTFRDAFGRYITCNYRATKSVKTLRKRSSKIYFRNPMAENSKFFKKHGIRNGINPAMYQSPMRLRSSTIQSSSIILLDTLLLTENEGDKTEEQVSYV
T1 sequence (P28223 whole entry): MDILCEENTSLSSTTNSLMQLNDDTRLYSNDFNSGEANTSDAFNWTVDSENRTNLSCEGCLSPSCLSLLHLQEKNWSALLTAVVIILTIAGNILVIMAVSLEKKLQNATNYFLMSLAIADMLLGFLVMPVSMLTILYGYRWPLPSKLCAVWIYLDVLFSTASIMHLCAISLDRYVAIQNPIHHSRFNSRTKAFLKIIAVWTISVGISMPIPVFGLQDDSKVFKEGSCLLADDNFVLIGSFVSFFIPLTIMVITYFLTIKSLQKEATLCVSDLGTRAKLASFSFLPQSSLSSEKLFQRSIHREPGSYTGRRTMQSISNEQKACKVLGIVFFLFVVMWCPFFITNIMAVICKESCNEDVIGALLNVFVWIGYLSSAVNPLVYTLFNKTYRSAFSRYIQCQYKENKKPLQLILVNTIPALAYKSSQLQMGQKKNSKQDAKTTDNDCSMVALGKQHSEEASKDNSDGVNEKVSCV

`CN(C)CCc1c[nH]c2cccc(OC(F)(F)F)c12` [Compound P-4, N,N-dimethyl-2-(4-(trifluoromethoxy)-1H-indol-3-yl)ethan-1-amine]: the EC50 (as a rule, the concentration needed to bring the measured effect to its halfway point) was 52.8 nM at 5-HT2A receptor, 15.9 nM at 5-HT2C receptor and more than 10000 nM at 5-HT2B receptor. The results for the Emax at 5-HT2A receptor, on 5-HT2C receptor and at 5-HT2B receptor were 34.6%, 66.6% and -0.97%, respectively.
`CN(C)CCc1c[nH]c2ccc(OC(F)(F)F)cc12` [Compound P-5, N,N-dimethyl-2-(5-(trifluoromethoxy)-1H-indol-3-yl)ethan-1-amine]: the values for the concentration for a half-maximal effect (EC50) on 5-HT2A receptor, at 5-HT2C receptor and at 5-HT2B receptor were 171 nM, 520 nM and more than 10000 nM, respectively. Moreover, the Emax (in general, the size of the effect at its maximum, as opposed to the concentration needed) at 5-HT2A receptor was 40.5%; at 5-HT2C receptor it was 55.1%; on 5-HT2B receptor, -0.27%.
As to `CN(C)CCc1c[nH]c2ccc(C(F)(F)F)cc12` [Compound P-15, N,N-dimethyl-2-(5-(trifluoromethyl)-1H-indol-3-yl)ethan-1-amine], the EC50 was 186 nM on 5-HT2A receptor, 89.7 nM on 5-HT2C receptor and more than 10000 nM at 5-HT2B receptor. Also, the Emax at 5-HT2A receptor is 28.7%; on 5-HT2C receptor, 88.8%; on 5-HT2B receptor, 7.41%.
As to `CCC(C)N(C)CCc1c[nH]c2ccc(OC)cc12` (stereo not drawn) [Compound P-16, N-(2-(5-methoxy-1H-indol-3-yl)ethyl)-N-methylbutan-2-amine], the half-maximal effective concentration (EC50) on 5-HT2A receptor is 36.9 nM; at 5-HT2C receptor it was 553 nM; on 5-HT2B receptor, more than 10000 nM. For the same compound, the results for the Emax at 5-HT2A receptor, on 5-HT2C receptor and on 5-HT2B receptor were 58.5%, 59.5% and -1.2%, respectively.
On to `CCCN(CCc1c[nH]c2ccc(OC)cc12)C(C)C` [Compound P-17, N-isopropyl-N-(2-(5-methoxy-1H-indol-3-yl)ethyl)propan-1-amine], for which the EC50 at 5-HT2A receptor worked out at 13.8 nM; at 5-HT2C receptor, 185 nM; at 5-HT2B receptor, 138 nM. For the same compound, the Emax at 5-HT2A receptor is 89%; at 5-HT2C receptor, 82.1%; at 5-HT2B receptor, 69.2%.
On to `CCN(CCc1c[nH]c2ccc(OC)cc12)CC(C)C` [Compound P-18, N-ethyl-N-(2-(5-methoxy-1H-indol-3-yl)ethyl)-2-methylpropan-1-amine], for which the EC50 at 5-HT2A receptor is 47.9 nM; at 5-HT2C receptor it was 1130 nM; on 5-HT2B receptor, 867 nM. In addition, the Emax was determined as 79.5% at 5-HT2A receptor, 68.9% at 5-HT2C receptor and 51.8% at 5-HT2B receptor.
In the case of `CCC(C)N(CC)CCc1c[nH]c2ccc(OC)cc12` (stereo not drawn) [Compound P-19, N-ethyl-N-(2-(5-methoxy-1H-indol-3-yl)ethyl)butan-2-amine], the values for the EC50 at 5-HT2A receptor, at 5-HT2C receptor and on 5-HT2B receptor were 33.3 nM, 933 nM and 1400 nM, respectively. Further, the Emax at 5-HT2A receptor was 70.3%; at 5-HT2C receptor, 76.8%; at 5-HT2B receptor, 44.5%.
As for `CCC(C)N(C)CCc1c[nH]c2ccccc12` (stereo not drawn) [Compound P-20, N-(2-(1H-indol-3-yl)ethyl)-N-methylbutan-2-amine], the EC50 on 5-HT2A receptor was 91.2 nM; at 5-HT2C receptor, 646 nM; at 5-HT2B receptor it was more than 10000 nM. Also, the Emax stood at 16.1% on 5-HT2A receptor, 58.8% at 5-HT2C receptor and 0.83% on 5-HT2B receptor.
Turning to `CCC(C)N(CC)CCc1c[nH]c2ccccc12` (stereo not drawn) [Compound P-21, N-(2-(1H-indol-3-yl)ethyl)-N-ethylbutan-2-amine], the values for the concentration for a half-maximal effect (EC50) at 5-HT2A receptor, at 5-HT2C receptor and at 5-HT2B receptor were 148 nM, 974 nM and more than 10000 nM, respectively. Besides, the Emax was found to be 71.5% at 5-HT2A receptor, 61.5% on 5-HT2C receptor and 37.2% at 5-HT2B receptor.
As to `CCN(CCc1c[nH]c2ccccc12)CC(C)C` [Compound P-22, N-(2-(1H-indol-3-yl)ethyl)-N-ethyl-2-methylpropan-1-amine], the figures for the half-maximal effective concentration (EC50) at 5-HT2A receptor, at 5-HT2C receptor and at 5-HT2B receptor were 389 nM, 960 nM and 1140 nM, respectively. Further, the figures for the Emax at 5-HT2A receptor, on 5-HT2C receptor and on 5-HT2B receptor were 52.8%, 58.4% and 28%, respectively.
Turning to `CCC(C)N(C)CCc1c[nH]c2cccc(OC)c12` (stereo not drawn) [Compound P-23, N-(2-(4-methoxy-1H-indol-3-yl)ethyl)-N-methylbutan-2-amine], the EC50 at 5-HT2A receptor is 124 nM; on 5-HT2C receptor, 465 nM; on 5-HT2B receptor, more than 10000 nM. For the same compound, the Emax on 5-HT2A receptor is 50.3%; on 5-HT2C receptor it was 21.7%; on 5-HT2B receptor, -0.21%.
`CCC(C)N(CC)CCc1c[nH]c2cccc(OC)c12` (stereo not drawn) [Compound P-24, N-ethyl-N-(2-(4-methoxy-1H-indol-3-yl)ethyl)butan-2-amine]: the concentration for a half-maximal effect (EC50) at 5-HT2A receptor was 70.2 nM; on 5-HT2C receptor, 964 nM; on 5-HT2B receptor, 444 nM. The Emax came out at 77.7% at 5-HT2A receptor, 68.6% on 5-HT2C receptor and 52.6% on 5-HT2B receptor.
For the compound `CCN(CCc1c[nH]c2cccc(OC)c12)C(C)C` [Compound P-25, N-ethyl-N-(2-(4-methoxy-1H-indol-3-yl)ethyl)propan-2-amine], the EC50 on 5-HT2A receptor worked out at 121 nM; on 5-HT2C receptor it was 676 nM; on 5-HT2B receptor it was 459 nM. Moreover, the Emax at 5-HT2A receptor came out at 85.9%; on 5-HT2C receptor, 77.8%; at 5-HT2B receptor, 61.4%.
Take `CCCN(CCc1c[nH]c2cccc(OC)c12)C(C)C` [Compound P-26, N-isopropyl-N-(2-(4-methoxy-1H-indol-3-yl)ethyl)propan-1-amine]: the EC50 was determined as 36.5 nM at 5-HT2A receptor, 106 nM at 5-HT2C receptor and 103 nM at 5-HT2B receptor. The Emax at 5-HT2A receptor stood at 81.6%; at 5-HT2C receptor, 87.1%; at 5-HT2B receptor, 96%.
`CCCN(C)CCc1c[nH]c2ccc(OC(F)(F)F)cc12` [Compound P-34, N-methyl-N-(2-(5-(trifluoromethoxy)-1H-indol-3-yl)ethyl)propan-1-amine]: the EC50 at 5-HT2A receptor was 665 nM; on 5-HT2C receptor, 329 nM; on 5-HT2B receptor, more than 10000 nM. Moreover, the Emax at 5-HT2A receptor was 53.7%; on 5-HT2C receptor it was 81.7%; on 5-HT2B receptor it was 18.9%.
Take `Cc1cccc2[nH]cc(CCN(C)C(C)C)c12` [Compound P-42, N-methyl-N-(2-(4-methyl-1H-indol-3-yl)ethyl)propan-2-amine]: the concentration for a half-maximal effect (EC50) on 5-HT2A receptor came to 39.6 nM; at 5-HT2C receptor, 48.6 nM; at 5-HT2B receptor it was 814 nM. In addition, the Emax on 5-HT2A receptor came to 94.7%; on 5-HT2C receptor it was 91.2%; at 5-HT2B receptor, 41.4%.
As to `COc1cccc2[nH]cc(CCN(C)CC(C)C)c12` [Compound P-136, N-(2-(4-methoxy-1H-indol-3-yl)ethyl)-N,2-dimethylpropan-1-amine], the concentration for a half-maximal effect (EC50) on 5-HT2A receptor was 91.5 nM; at 5-HT2C receptor, 261 nM; on 5-HT2B receptor it was more than 10000 nM. In addition, the Emax at 5-HT2A receptor is 100%; at 5-HT2C receptor, 78.5%; on 5-HT2B receptor, -1.63%.
In the case of `CCN(CCc1c[nH]c2cccc(OC)c12)CC(C)C` [Compound P-137, N-ethyl-N-(2-(4-methoxy-1H-indol-3-yl)ethyl)-2-methylpropan-1-amine], the figures for the EC50 on 5-HT2A receptor, on 5-HT2C receptor and at 5-HT2B receptor were 85.6 nM, 138 nM and more than 10000 nM, respectively. Moreover, the values for the Emax on 5-HT2A receptor, at 5-HT2C receptor and on 5-HT2B receptor were 95.8%, 96.2% and 19.4%, respectively.
With `CCN(CCc1c[nH]c2cccc(O)c12)C(C)C` [Compound P-138, 3-(2-(ethyl(isopropyl)amino)ethyl)-1H-indol-4-ol], the EC50 on 5-HT2A receptor was found to be 19.9 nM; at 5-HT2C receptor, 862 nM; on 5-HT2B receptor it was 322 nM. The results for the Emax at 5-HT2A receptor, on 5-HT2C receptor and on 5-HT2B receptor were 105%, 83.3% and 53.5%, respectively.
Regarding `CCC(C)N(CC)CCc1c[nH]c2cccc(O)c12` (stereo not drawn) [Compound P-139, 3-(2-(sec-butyl(ethyl)amino)ethyl)-1H-indol-4-ol], the EC50 was 54 nM at 5-HT2A receptor, 1900 nM on 5-HT2C receptor and more than 10000 nM at 5-HT2B receptor. Besides, the Emax amounted to 107% on 5-HT2A receptor, 55.2% at 5-HT2C receptor and 15.7% at 5-HT2B receptor.
`CCN(CCc1c[nH]c2cccc(O)c12)CC(C)C` [Compound P-140, 3-(2-(ethyl(isobutyl)amino)ethyl)-1H-indol-4-ol]: the figures for the 50% effective concentration (EC50) on 5-HT2A receptor, at 5-HT2C receptor and on 5-HT2B receptor were 27.7 nM, 992 nM and more than 10000 nM, respectively. Moreover, the Emax turned out to be 97.5% on 5-HT2A receptor, 95.4% on 5-HT2C receptor and 17.5% on 5-HT2B receptor.

Source of the values: US20250074873A1, “COMPOUNDS” (Psylo Pty Ltd, priority 2021, published 2025).
